In ChEMBL document CHEMBL1201862, “PubChem BioAssay data set” (2004):
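Cells were grown in 96-well plates and exposed to each compound for 48 hours at five concentrations; endpoints were interpolated linearly between bracketing concentrations, or set to the highest concentration if not reached. The concentration for 50% growth inhibition is given as GI50.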 The source made the active and inactive calls. Cut-off read from the data, not from the text of the source: active = GI50 up to about 1.1 µM and inactive = higher.

Key:
Experiment in all cases: NCI-60 cell line screen, 48 h
HOP-18 = test system: HOP-18
DMS-114 = test system: DMS-114
DLD-1 = test system: DLD-1
DMS-273 = test system: DMS-273
KM-20L2 = test system: KM-20L2
XF498 = test system: XF498
LXFL 529 = test system: LXFL 529
RXF 631 = test system: RXF 631

Measured: GI50

N=C(N)NS(=O)(=O)c1ccc(NC(=O)c2cccn3c(=O)c4ccccc4nc23)cc1
inactive: HOP-18 > 100 µM | DMS-114 40.6 µM | DLD-1 83 µM | DMS-273 32.1 µM | KM-20L2 13.6 µM | XF498 22.5 µM | LXFL 529 37.5 µM | RXF 631 41.4 µM

CCN(CC)CCC(=O)/C=C/c1ccc(C)cc1
inactive: HOP-18 17.6 µM | DMS-114 11.3 µM | DLD-1 6.17 µM | DMS-273 11.2 µM | KM-20L2 15.6 µM | XF498 12.4 µM | LXFL 529 7.67 µM | RXF 631 16.4 µM

CCOC(=O)NC1C2CC(=O)C(O2)C1OCc1ccccc1 (centres undefined)
inactive: HOP-18 > 100 µM | DMS-114 > 100 µM | DLD-1 > 100 µM | DMS-273 > 100 µM | KM-20L2 > 100 µM | XF498 > 100 µM | LXFL 529 > 100 µM | RXF 631 > 100 µM

COc1cc2c(cc1OC)C1[C@@H](c3ccccc3)OCN1CC2 (some centres undefined)
inactive: HOP-18 > 100 µM | DMS-114 88.1 µM | DLD-1 > 86.9 µM | DMS-273 > 100 µM | KM-20L2 > 100 µM | XF498 > 100 µM | LXFL 529 > 100 µM | RXF 631 > 100 µM

COc1ccc2nc(C(=O)c3ccccc3)c(C)cc2c1
inactive: HOP-18 > 26.9 µM | DMS-114 3.22 µM | DLD-1 4.84 µM | DMS-273 3.08 µM | KM-20L2 3.18 µM | XF498 3.68 µM | LXFL 529 9.25 µM | RXF 631 8.18 µM

CN(C)c1ccc(/C=C2\N=C(c3ccc(N)cc3)OC2=O)cc1
inactive: HOP-18 > 100 µM | DMS-114 > 100 µM | DLD-1 > 100 µM | DMS-273 > 100 µM | KM-20L2 > 100 µM | XF498 > 100 µM | LXFL 529 > 100 µM | RXF 631 > 100 µM

CCCC(=O)c1c(NOC2OCC(OC(C)=O)C(OC(C)=O)C2OC(C)=O)nc(OC)n(C)c1=O (centres undefined)
inactive: HOP-18 > 100 µM | DMS-114 > 100 µM | DLD-1 > 100 µM | DMS-273 > 100 µM | KM-20L2 > 100 µM | XF498 > 100 µM | LXFL 529 > 100 µM | RXF 631 > 100 µM

COc1ccc(/C(Cl)=C(/c2ccc(O)cc2)c2ccc(OCCN(C)C)cc2)cc1
inactive: HOP-18 12.5 µM | DMS-114 7.18 µM | DLD-1 15.7 µM | DMS-273 11.1 µM | KM-20L2 3.1 µM | XF498 3.65 µM | LXFL 529 10.8 µM | RXF 631 12.4 µM
